{"source": "patent US5047244A", "about": "“Mucoadhesive carrier for delivery of therapeutical agent” (priority 1988, dated 1991)", "format_in_all_cases": "physicochemical", "key": {"[1]": {"experiment": "In vitro therapeutic agent release (USP Dissolution Test Method II, 0.05M isotonic phosphate buffer pH 6.0 with 30 weight percent PEG 400)", "settings": "for In vitro release of 17 β-estradiol: Example 17 carrier (Table XIX, mannitol); for In vitro release of dehydroepiandrosterone: Example 12 carrier, 5 mg DHEA; for Therapeutic Agent Release Parameter, T, 20% / Therapeutic Agent Release Parameter, T, 50% / Therapeutic Agent Release Parameter, T, 75% / Therapeutic Agent Release Parameter, T, 90%: Example 7 carrier (Table VII), 20 mg agent, agent:PEG 8000 1:2", "protocol": "Therapeutic agent release studies were conducted using an Erweka dissolution test assembly in compliance with Dissolution Test Method II as described in The United States Pharmacopeia, 24th revision (USP XXIV). Five hundred milliliters of a 0.1M phosphate buffer dissolution fluid was maintained at about 37° C. (about 100° F.) and the […] was rotated at 50 revolutions per minute (rpm). At predetermined time points, samples of approximately 3 milliliters of the test medium were withdrawn from the flasks and immediately replaced with an equivalent volume of blank buffer. Analysis of the samples was performed by ultraviolet spectrophotometry. […] The time to achieve 20%, 50% and 80% by weight dissolution of the piroxicam was estimated from a linear plot of percent dissolved versus time.\nTherapeutic agent release testing was conducted by the USP Dissolution Test Method II. The dissolution medium chosen was 500 ml of a 0.05M isotonic phosphate buffer having a 6.0 pH with 30 weight percent PEG 400.\nAn equivalent of 20 mg of albuterol in a mucosal composition of a albuterol:PEG 8000 weight in a ratio of 1:2 was included in each carrier. […] Plots of weight percent therapeutic agent released versus time were constructed and the drug release parameter T (in hours) for a given weight and percent drug released was calculated from the plots."}, "[2]": {"experiment": "Saturation solubility in phosphate buffer", "settings": "0.1m phosphate buffer, aqueous buffer"}, "[3]": {"experiment": "In vitro therapeutic agent release (USP Dissolution Test Method II, 0.05M isotonic phosphate buffer pH 6.0 with 30 weight percent PEG 400)", "settings": "for In vitro release of therapeutic agent: 20 mg piroxicam; for In vitro release of 17 β-estradiol: Example 17 carrier (Table XIX, mannitol)"}}, "data": [{"smiles": "CN1C(C(=O)Nc2ccccn2)=C(O)c2ccccc2S1(=O)=O", "note": "[piroxicam]", "values": [{"measurement": "In vitro release of therapeutic agent", "setting": "[1]; Example 9 carrier, 20 mg piroxicam, 6 hours", "result": 24.1, "unit": "weight percent"}, {"measurement": "In vitro release of therapeutic agent", "setting": "[1]; Example 9 carrier, 20 mg piroxicam, 23 hours", "result": 56, "unit": "weight percent"}, {"measurement": "In vitro release of therapeutic agent", "setting": "[1]; Example 9 carrier, 20 mg piroxicam, one hour", "result": 5, "unit": "weight percent"}, {"measurement": "Order of release", "setting": "[1]; Example 9 carrier, piroxicam", "result": "apparent zero order rate"}, {"measurement": "solubility", "setting": "[2]", "result": "~7700", "unit": "µg/mL"}, {"measurement": "In vitro release of therapeutic agent", "setting": "[3]; Example 9 carrier, three hours", "result": 13, "unit": "weight percent"}, {"measurement": "In vitro release of therapeutic agent", "setting": "[3]; Example 9 carrier, two hours", "result": 9, "unit": "weight percent"}, {"measurement": "Therapeutic agent remaining in the carrier", "setting": "[3]; Example 9 carrier, piroxicam, after 23 hours", "result": "36-47 weight percent"}]}, {"smiles": "C[C@]12CC[C@@H]3c4ccc(O)cc4CC[C@H]3[C@@H]1CC[C@@H]2O", "note": "[17 β-estradiol]", "values": [{"measurement": "In vitro release of therapeutic agent", "setting": "[1]; Example 10 carrier, 17 β-estradiol, 1 hour", "result": 2.5, "unit": "weight percent"}, {"measurement": "In vitro release of therapeutic agent", "setting": "[1]; Example 10 carrier, 17 β-estradiol, 2 hours", "result": 4, "unit": "weight percent"}, {"measurement": "In vitro release of therapeutic agent", "setting": "[1]; Example 10 carrier, 17 β-estradiol, 5 hours", "result": 9.5, "unit": "weight percent"}, {"measurement": "In vitro release of therapeutic agent", "setting": "[1]; Example 10 carrier, 17 β-estradiol, 24 hours", "result": 46.3, "unit": "weight percent"}, {"measurement": "In vitro release of 17 β-estradiol", "setting": "[1]; 5 hours", "result": 9.5, "unit": "weight percent"}, {"measurement": "In vitro release of 17 β-estradiol", "setting": "[1]; 10 hours", "result": 15, "unit": "weight percent"}, {"measurement": "Order of release", "setting": "[3]; Example 10 carrier, 17 β-estradiol", "result": "apparent zero order process"}, {"measurement": "In vitro release of 17 β-estradiol", "setting": "[3]; 15 hours", "result": 17, "unit": "weight percent"}, {"measurement": "In vitro release of 17 β-estradiol", "setting": "[3]; 20 hours", "result": 19.5, "unit": "weight percent"}]}, {"smiles": "C[C@]12CC[C@H](O)CC1=CC[C@@H]1[C@@H]2CC[C@]2(C)C(=O)CC[C@@H]12", "note": "[dehydroepiandrosterone]", "values": [{"measurement": "In vitro release of dehydroepiandrosterone", "setting": "[1]; 6 hours", "result": 20, "unit": "weight percent"}, {"measurement": "In vitro release of dehydroepiandrosterone", "setting": "[1]; 10.5 hours", "result": 30, "unit": "weight percent"}, {"measurement": "In vitro release of dehydroepiandrosterone", "setting": "[1]; 13 hours", "result": 40, "unit": "weight percent"}, {"measurement": "In vitro release of dehydroepiandrosterone", "setting": "[1]; 23 hours", "result": 50, "unit": "weight percent"}]}, {"smiles": "CC(C)(C)NCC(O)c1ccc(O)c(CO)c1", "note": "(stereo not drawn) [Albuterol]", "values": [{"measurement": "Therapeutic Agent Release Parameter, T, 20%", "setting": "[1]", "result": 0.58, "unit": "h"}, {"measurement": "Therapeutic Agent Release Parameter, T, 50%", "setting": "[1]", "result": 3.16, "unit": "h"}, {"measurement": "Therapeutic Agent Release Parameter, T, 75%", "setting": "[1]", "result": 5.67, "unit": "h"}, {"measurement": "Therapeutic Agent Release Parameter, T, 90%", "setting": "[1]", "result": 6.83, "unit": "h"}, {"measurement": "Time to release 20% by weight of albuterol", "setting": "[1]; Example 13 carrier (Table XV)", "result": "approximately 0.8 hr"}, {"measurement": "Time to release 50% by weight of albuterol", "setting": "[1]; Example 13 carrier (Table XV)", "result": "~2.6", "unit": "h"}, {"measurement": "Time to release 75% by weight of albuterol", "setting": "[1]; Example 13 carrier (Table XV)", "result": "~6", "unit": "h"}, {"measurement": "Time to release 90% by weight of albuterol", "setting": "[1]; Example 13 carrier (Table XV)", "result": "~10.5", "unit": "h"}, {"measurement": "Time to release 20% by weight of albuterol", "setting": "[1]; Example 14 carrier (Table XVI)", "result": "approximately 1 hr"}, {"measurement": "Time to release 50% by weight of albuterol", "setting": "[1]; Example 14 carrier (Table XVI)", "result": "~3.5", "unit": "h"}, {"measurement": "Time to release 75% by weight of albuterol", "setting": "[1]; Example 14 carrier (Table XVI)", "result": "~8", "unit": "h"}, {"measurement": "Time to release 90% by weight of albuterol", "setting": "[1]; Example 14 carrier (Table XVI)", "result": "~15", "unit": "h"}, {"measurement": "In vitro release of albuterol", "setting": "[1]; Example 15 carrier (Table XVII), 3 hours", "result": 22, "unit": "weight percent"}, {"measurement": "In vitro release of albuterol", "setting": "[1]; Example 15 carrier (Table XVII), 7.5 hours", "result": 50, "unit": "weight percent"}, {"measurement": "In vitro release of albuterol", "setting": "[1]; Example 15 carrier (Table XVII), 12 hours", "result": 75, "unit": "weight percent"}, {"measurement": "In vitro release of albuterol", "setting": "[1]; Example 15 carrier (Table XVII), 18 hours", "result": 90, "unit": "weight percent"}, {"measurement": "In vitro release of albuterol", "setting": "[1]; Example 16 carrier (Table XVIII), 2 hours", "result": 27, "unit": "weight percent"}, {"measurement": "In vitro release of albuterol", "setting": "[1]; Example 16 carrier (Table XVIII), 5 hours", "result": 50, "unit": "weight percent"}, {"measurement": "In vitro release of albuterol", "setting": "[1]; Example 16 carrier (Table XVIII), 10 hours", "result": 73, "unit": "weight percent"}, {"measurement": "In vitro release of albuterol", "setting": "[1]; Example 16 carrier (Table XVIII), 19 hours", "result": 90, "unit": "weight percent"}]}, {"smiles": "CC(N)C(O)c1ccccc1", "note": "(stereo not drawn) [Phenylpropanolamine]", "values": [{"measurement": "Therapeutic Agent Release Parameter, T, 20%", "setting": "[1]", "result": 0.58, "unit": "h"}, {"measurement": "Therapeutic Agent Release Parameter, T, 50%", "setting": "[1]", "result": 2.83, "unit": "h"}, {"measurement": "Therapeutic Agent Release Parameter, T, 75%", "setting": "[1]", "result": 6.04, "unit": "h"}, {"measurement": "Therapeutic Agent Release Parameter, T, 90%", "setting": "[1]", "result": 8.42, "unit": "h"}]}]}
